The record followed here is patent US5858702A, “Isolation, cloning and expression of transmembrane water channel Aquaporin 5 (AQP5)” (The Johns Hopkins University, priority 1995, dated 1999).

Structures are written as SMILES.

For assay [1], the system named is Xenopus oocytes. The assay can be described thus: Osmotic water permeability (swelling) of control- or AQP1 RNA-injected Xenopus oocytes. The format is cell-based, Xenopus laevis. To be noted: control-injected oocytes (RNA None), 22° C. The method, then:
(§1) Expression of AOP1 in Xenopus oocytes. Oocytes were removed from female Xenopus laevis frogs and prepared as described by Dascal (CRC Crit. Rev. Biochem., 1987, 22:317-373). Oocytes were injected with 0.05 microliters of water (control) or the same volume of water containing 1-10 nanograms of AQP1 RNA. The oocytes were incubated for up to 96 hours at 18° C. in modified Barth's buffer (88 mM NaCl, 1 mM KCl, 0.8 mM MgSO4, 0.3 mM Ca(NO3) 2, 0.4 mM CaCl2, 2.4 mM NaHCO3, 10 mM HEPES, pH =7.4, total osmolality =200 mOsm/kg) also containing antibiotics. The whole oocytes were then removed and total cellular protein was dissolved in 40 microliters of buffer containing 1% (w/v) SDS and analyzed by immunoblot (Towbin et al., 1979, Proc. Natl. Acad. Sci. USA 76:4350-4354).
A swelling assay was adapted from that of published work (Fischbarg et al., 1990, Proc. Natl. Acad. Sci. USA 87:3244-3247; Zhang et al., 1990, J. Biol. Chem. 265:15375-15378). […] Swelling was monitored with a Nikon phase-contrast microscope equipped for videorecording. The longest (D1) and shortest (D2) diameters of the oocytes were measured at 15- to 30-second intervals. Oocyte volumes (V) at each time point were calculated relative to volume at the initial observation (V0): […]

The target in assay [2] is T1, AQP1 (Homo sapiens, UniProt P29972).
T1 construct: expressed in transfected cells; host or cells: Xenopus laevis oocytes injected with in vitro transcribed AQP1 RNA
T1 sequence (P29972 1-269): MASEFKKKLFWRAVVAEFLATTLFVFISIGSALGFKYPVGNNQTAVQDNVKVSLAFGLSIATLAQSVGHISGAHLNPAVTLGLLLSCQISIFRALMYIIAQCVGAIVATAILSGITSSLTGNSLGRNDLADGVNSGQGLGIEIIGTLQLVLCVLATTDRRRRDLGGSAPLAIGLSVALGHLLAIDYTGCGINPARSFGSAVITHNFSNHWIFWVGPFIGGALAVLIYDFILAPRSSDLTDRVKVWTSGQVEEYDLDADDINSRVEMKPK
Put plainly: Xenopus oocyte osmotic swelling assay, AQP1 RNA-injected oocytes treated with HgCl2 / β-mercaptoethanol. To be noted: for Pf: AQP1 RNA-injected (10 ng) oocytes. The format is cell-based. The method, then:
as §1
A swelling assay was adapted from that of published work (Fischbarg et al., 1990, Proc. Natl. Acad. Sci. USA 87:3244-3247; Zhang et al., 1990, J. Biol. Chem. 265:15375-15378). Control-injected oocytes and AQP1 RNA-injected oocytes were incubated at 22° C. in modified Barth's solution diluted with distilled H2 O to 30% of the original tonicity. The oocytes were then observed by videomicroscopy. Swelling was monitored with a Nikon phase-contrast microscope equipped for videorecording. The longest (D1) and shortest (D2) diameters of the oocytes were measured at 15- to 30-second intervals. Oocyte volumes (V) at each time point were calculated relative to volume at the initial observation (V0):
The change in relative volume with time, d(V/Vo)/dt, up to 8 minutes (or time of oocyte rupture) was fitted by computer to a quadratic polynomial, and initial rates of swelling were calculated. Osmotic water permeability (Pf, in cm/s) was calculated from osmotic swelling data, initial oocyte surface area (S=0.045 cm^2), and the molar volume of water (Vw =18 cm^3 /mol) (Zhang et al., 1990, J. Biol. Chem. 15375):
Pf =[Vo ×d(V/V0)dt]/[S×Vw
After 72 hours, control- or AQP1 RNA-injected (10 ng) oocytes were treated as indicated. Some oocytes were left in standard Barth's buffer prior to measurement of osmotic swelling at 22° C. […]

Take `[Cl][Hg][Cl]` [HgCl2]: the Pf in assay [1] (HgCl2 0.3 (nM), ME 0) was 20.3 cm/s x 10^-4; in assay [2] (72 hours, HgCl2 0.3, ME 0, 5 minutes, swelling at 22° C.), 80.7 cm/s x 10^-4; in assay [2] (72 hours, HgCl2 3.0, ME 0, 5 minutes, 22° C.), 34.5 cm/s x 10^-4. Further, the “Swelling of AQP1 RNA-injected oocytes, effect of HgCl2” value in assay [2] (0.3 mM HgCl2) is reported as “inhibited”. For the same compound, the “effect of HgCl2 on increase in Pf mediated by AQP1” value in assay [2] (1 mM HgCl2, 5 min. (FIG. 15)) was “blocked”.

With `OCCS` [β-mercaptoethanol], the Pf was 25.4 cm/s x 10^-4 in assay [1] and 188 cm/s x 10^-4 in assay [2] (HgCl2 0.3 then ME 5 for 15 min, 22° C.). Besides, in assay [2] (5 mM β-mercaptoethanol 30 min. after 1 mM HgCl2 (FIG. 15)), the “Pf of AQP1 oocytes after HgCl2, effect of β-mercaptoethanol” value is listed as “restored”. In assay [2] (5 mM β-mercaptoethanol after 0.3 mM HgCl2), the “Swelling of AQP1 RNA-injected oocytes after HgCl2, effect of β-mercaptoethanol” value is recorded as “restored”.
